The values below come from patent US20240424010A1, “NICOTINAMIDE RIBOSIDE TRIOLEATES CHLORIDE, COMPOSITIONS CONTAINING THIS COMPOUND, AND METHODS OF MAKING AND USING THIS COMPOUND” (SOCIETE DES PRODUITS NESTLE S.A., priority 2021, published 2024).

Data set [1] has as its system NAD+ level in mammalian cell. Conditions: cited from earlier work.
The nature of data set [2]: Hydrolysis stability of NRTOCl emulsions and NRCl in water at room temperature for 42 days. In kind it is physicochemical. Conditions: room temperature, 42 days. How it is done: After each specific time of stability for NRTOCl and NRCl emulsions, 1.5 mL of each emulsion was centrifuged (14,000 rpm) for 20 minutes at room temperature. […] However, during this time of stability study, 52.0% NR was intact in water at room temperature. […] During this time, these emulsions were stable without visible phase separation. A little increase in the average size of the NRTO droplets occurred in these emulsions, so that in Cas emulsion, the average size increased from 1020 nm to 1281 nm, and in Cas-Lec emulsion, this parameter increased from 1012 nm to 1106 nm.

Data set [3] can be described thus: Hydrolysis stability of NRTOCl and NRCl oil-in-water emulsions and NRCl in water at 35° C. for 26 days. In kind it is physicochemical. The method, then: The emulsion was prepared using 480 mg of oil stock containing 15 wt. % NRTOCl in canola oil and an aqueous phase (14.52 g) of Na-caseinate (2 wt. %), KCl (0.3 wt. %), NaCl (0.1 wt. %), CaCl2 (0.2 wt. %) and NaN3 (0.01 wt. %).
The emulsion was-prepared using 480 mg of oil stock containing 15 wt. % NRTOCl in canola oil and 0.025 g of lecithin. The aqueous phase (14.5 g) contained Na-caseinate (2 wt. %), KC (0.3 wt. %), NaCl (0.1 wt. %), CaCl2 (0.2 wt. %) and NaN3 (0.01 wt. %).
The emulsion was-prepared using 480 mg of oil stock containing 15 wt. % NRTOCl in canola oil and an aqueous phase (14.52 g) of polysorbate 80 (Tween 80) (2 wt. %).
The emulsion was prepared using around 480 mg of canola oil in an aqueous phase (14.52 g) of NRCl (19 mg), Na-caseinate (2 wt. %), KCl (0.3 wt. %), NaCl (0.1 wt. %), CaCl2 (0.2 wt. %) and NaN3 (0.01 wt. %).
After each specific time of stability for NRTOCl and NRCl emulsions, 1.5 mL of each emulsion was centrifuged (14,000 rpm) for 20 minutes at room temperature.
Since NRTOCl is a very hydrophobic compound, to evaluate its stability in oil phase, an emulsion system was used to study the stability of NRTOCl as a function of time. For this purpose, a 15% w/w solution of NRTOCl in canola oil was used for making different emulsions with Na-caseinate, Tween 80 and lecithin as the emulsifiers (2 wt. %) at room temperature.
When Na-caseinate was used as an emulsifier, the aqueous phase must be a solution of NaCl (0.1 wt. %), CaCl2 (0.2 wt. %) and KCl (0.3 wt. %) because caseinate anion with minus charge and NRTO with positive charge immediately aggregated in DI water. The total oil phase in these emulsions were 3.2 wt. %, and the concentration of NRTOCl in total volume of each emulsion (15 mL) was 4.4 mM. In the emulsions that used Na-caseinate as an emulsifier, NaN3 (0.01 wt. %) was added to prevent the growth of bacteria. When the NRTOCl emulsion was made by 2 wt. % Na-caseinate, its average size and zeta potential in this emulsion (Cas emulsion) were 1020 nm and −14.4 mV respectively.
After making NRTOCl emulsions, a NRCl in canola oil-in-water emulsion was attempted as a control experiment using 3.2% canola oil. The aqueous phase was a solution of Na-caseinate (2 wt. %), NaCl (0.1 wt. %), CaCl2 (0.2 wt. %), KCl (0.3 wt. %) and NaN3 (0.01 wt. %). The concentration of NRCl in total volume (15 mL) of this emulsion was 4.4 mM. Moreover, 15 mL of NRCl solution in DI water was prepared with 4.4 mM concentration as the other control experiment. After preparing three NRTOCl emulsions and two control experiment samples, hydrolysis stability of each sample was studied at 35° C. for 26 days (FIG. 14). The rate of degradation was measured by determination of the released nicotinamide from each sample. […]

The nature of data set [4]: Stability of NRTOCl and NRCl in DI water at 35° C. for 28 days (released nicotinamide by HPLC). The format is physicochemical. The note with it: DI water, 1000 ppm, 28 days. The method, then: Although NRTOCl is a quaternary ammonium salt, it was not dissolved in water due to the existence of three groups of oleate fatty ester in its structure. Therefore, for the stability study of NRTOCl, this compound was dispersed in DI water using 1% ethanol as a cosolvent. For this purpose, 15 mg of NRTOCl was dissolved in 0.15 ml of ethanol (1%) and then 14.85 ml of DI water was added to the mixture and gently shaken. […] Although the average size of NRTOCl in this sample was 192 nm, the images of TEM disclosed smaller particles with around 50 nm and oval and spherical shapes with aspect ratio close to unity (FIGS. 10A-10C). In the nanoparticles, the NRTOCl structures are stacked on top of each other layer-by-layer. The highly positive charge of NRTO makes the nanoparticles stable in the aqueous phase. After dispersion of NRTOCl in DI water, NRCl was dissolved in DI water, and the stability of these samples were studied at 35° C. for 28 days (FIG. 11). The concentration of each sample was 1000 ppm. As during the hydrolysis reaction of NRTO and NR, both of these compounds released nicotinamide (FIG. 12), and by measuring the released amount of nicotinamide in each sample with HPLC, the remaining amounts of NRTO and NR in each sample were calculated. During this study, any release of NR from NRTO sample was not detected. It signifies that the heavy ester groups in NRTO sample are not hydrolyzed during the time of stability study. Because this study was performed in DI water and the conditions were mild, the NRTO was hydrolyzed from its N-glycoside bond.

A short description of data set [5]: Solubility study of NRTBCl in long and medium chain triglycerides and in water at different pH. The format is physicochemical. How it is done:
To study the solubility of NRTBCl in long chain triglycerides, we tried to dissolve this compound in olive oil and corn oil. For this purpose, 15 mg of NRTBCl was added to 15 ml of olive oil and vigorously shaked with vortex for 10 minutes at room temperature. […] This procedure was repeated by using corn oil instead of olive oil and the obtained results disclosed that NRTB was insoluble in corn oil. To study the solubility of NRTBCl in medium chain triglycerides, we tried to dissolve this compound in coconut oil. For this purpose, 15 mg of NRTBCl was added to 15 ml of coconut oil and vigorously shaked with vortex for 10 minutes at room temperature. […] To study the solubility of NRTB in water, three aqueous solutions of NRTBCl were prepared with 10000 ppm concentration at pH 5, 7, and 9.

Data set [6] is described as follows: NRTBCl stability measurement in MQ water at 35° C. In kind it is physicochemical. The note with it: 6 days, 1000 ppm, preliminary. The method, then: The stability study of the NRTBCl was performed by dissolving NRTB in MQ water and keeping at 35° C. for 6 days. The concentration of each sample was 1000 ppm. […] The reason for increasing the intensity of the peak at 33 min (flow rate: 0.75 mL/min), is that the byproduct of degradation is nicotinamide (NA), which has the retention time of 33 min (exactly as NRTBCl).

The mark [7] stands for this setting: 15 mg in 15 ml, vortex 10 minutes, room temperature.

As for `NC(=O)c1ccc[n+]([C@@H]2O[C@H](CO)[C@@H](O)[C@H]2O)c1.[Cl-]` [NRCl, Nicotinamide riboside chloride, reference compound], in data set [1], the “boost of the level of NAD+ in mammalian cell” value was “up to two fold”. For the same molecule, the “NR hydrolyzed after 42 days” value in data set [2] is on record as 48%. For the same molecule, the “NR intact in water after 42 days” value in data set [2] (water) is given as 52.0%. Besides, the “solubility in the oil phase of the emulsion” value in data set [3] is “cannot be dissolved”. In data set [4], the “remaining amount after 28 days” value worked out at 0.6%.
As to `CCCC(=O)OC[C@H]1O[C@@H]([n+]2cccc(C(N)=O)c2)[C@H](OC(=O)CCC)[C@@H]1OC(=O)CCC.[Cl-]` [NRTBCl, nicotinamide riboside tributyrates chloride], in data set [5], the “solubility (general statement)” value is “did not demonstrate good solubility”. Further, in data set [5] (setting [7]), the “solubility in coconut oil” value is reported as “not dissolved”, the “solubility in corn oil” value is on record as “insoluble” and the “solubility in olive oil” value is “not dissolved”. The “solubility in water at different pH” value in data set [5] (10000 ppm, pH 5, 7, and 9, zeta sizer) is listed as “completely be dissolved”. Also, the “hydrolysis stability in MQ water” value in data set [6] is “easily hydrolyzed”.
